Test results reported in PubChem BioAssay (NCI).
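Interpolation was linear, between the two tested concentrations surrounding the appropriate level; five concentrations were tested over 48 hours in 96-well plates. At the GI50, growth is halved. TGI denotes the concentration required for complete inhibition of growth.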

Tests used:
Experiment in all cases: inhibition of tumour cell growth, NCI panel, 48 h
DU-145 prostate = tested on: DU-145 prostate
IGROV1 ovarian = tested on: IGROV1 ovarian
KM12 colon = tested on: KM12 colon
MALME-3M melanoma = tested on: MALME-3M melanoma
MDA-MB-231 breast = tested on: MDA-MB-231 breast
MOLT-4 leukemia = tested on: MOLT-4 leukemia
OVCAR-4 ovarian = tested on: OVCAR-4 ovarian
PC-3 prostate = tested on: PC-3 prostate
RXF 393 renal = tested on: RXF 393 renal
SK-MEL-2 melanoma = tested on: SK-MEL-2 melanoma

`Cc1ccc2c(C)c3c(ccc4ccccc43)c[n+]2c1` showed a GI50 (DU-145 prostate) of 14.7 µM, a TGI (DU-145 prostate) of 40.6 µM and a GI50 (IGROV1 ovarian) of 9.28 µM. It also gave a TGI (IGROV1 ovarian) of 80.1 µM, a GI50 (KM12 colon) of 1.56 µM and a TGI (KM12 colon) of 14.8 µM. For the same molecule, the GI50 (MALME-3M melanoma) was 1.96 µM, the TGI (MALME-3M melanoma) was 5.69 µM and the GI50 (MDA-MB-231 breast) was 13.5 µM. For the same molecule, the TGI (MDA-MB-231 breast) was 46.2 µM, the GI50 (MOLT-4 leukemia) was 5.54 µM and the TGI (MOLT-4 leukemia) was 28.4 µM. For the same molecule, the GI50 (OVCAR-4 ovarian) was 5.21 µM, the TGI (OVCAR-4 ovarian) was 41.7 µM and the GI50 (PC-3 prostate) was 7.15 µM. The TGI (PC-3 prostate) was 41 µM, the GI50 (RXF 393 renal) was 41.5 µM and the TGI (RXF 393 renal) was greater than 100 µM. It also gave a GI50 (SK-MEL-2 melanoma) of 15.4 µM and a TGI (SK-MEL-2 melanoma) of 33.6 µM.
`Cn1cc(C2=C(c3c4n(c5ccccc35)CCCCC4)C(=O)NC2=O)c2ccccc21` gave a GI50 (DU-145 prostate) of 5.4 µM, a TGI (DU-145 prostate) greater than 17.3 µM and a GI50 (IGROV1 ovarian) of 3.55 µM. For the same molecule, the TGI (IGROV1 ovarian) was greater than 25 µM, the GI50 (KM12 colon) was 2.97 µM and the TGI (KM12 colon) was greater than 25 µM. For the same molecule, the GI50 (MALME-3M melanoma) was greater than 11.5 µM, the TGI (MALME-3M melanoma) was greater than 25 µM and the GI50 (MDA-MB-231 breast) was 6.42 µM. The TGI (MDA-MB-231 breast) was greater than 25 µM, the GI50 (MOLT-4 leukemia) was 7.04 µM and the TGI (MOLT-4 leukemia) was greater than 25 µM. It also gave a GI50 (OVCAR-4 ovarian) of 7.32 µM, a TGI (OVCAR-4 ovarian) greater than 25 µM and a GI50 (PC-3 prostate) of 3.2 µM. The TGI (PC-3 prostate) was greater than 25 µM, the GI50 (RXF 393 renal) was 1.42 µM and the TGI (RXF 393 renal) was 7.23 µM. It also gave a GI50 (SK-MEL-2 melanoma) of 2.12 µM and a TGI (SK-MEL-2 melanoma) greater than 18.8 µM.
Molecule `OC1CSSC1Cn1cnc2c(Nc3ccc(OCc4cccc(F)c4)c(Cl)c3)ncnc21` (stereo not given) has a GI50 (DU-145 prostate) of 1.19 µM, a TGI (DU-145 prostate) of 4.95 µM and a GI50 (IGROV1 ovarian) of 4.46 µM. It also gave a TGI (IGROV1 ovarian) of 13.6 µM, a GI50 (KM12 colon) of 0.386 µM and a TGI (KM12 colon) of 1.43 µM. It also gave a GI50 (MALME-3M melanoma) of 2.52 µM, a TGI (MALME-3M melanoma) of 10.6 µM and a GI50 (MDA-MB-231 breast) of 0.986 µM. For the same molecule, the TGI (MDA-MB-231 breast) was 4.53 µM, the GI50 (MOLT-4 leukemia) was 0.441 µM and the TGI (MOLT-4 leukemia) was 1.38 µM. For the same molecule, the GI50 (OVCAR-4 ovarian) was 1.27 µM, the TGI (OVCAR-4 ovarian) was 8.53 µM and the GI50 (PC-3 prostate) was 0.749 µM. For the same molecule, the TGI (PC-3 prostate) was 1.87 µM, the GI50 (RXF 393 renal) was 5.12 µM and the TGI (RXF 393 renal) was 10.7 µM. It also gave a GI50 (SK-MEL-2 melanoma) of 0.997 µM and a TGI (SK-MEL-2 melanoma) of 3.26 µM.
Work on `COc1cc2c(cc1OCCCCN1CCN(CC(=O)Nc3ccc(Cl)cc3C(=O)c3ccccc3Cl)CC1)N=CC1CCCN1C2=O` (stereo not given) yielded a GI50 (DU-145 prostate) of 0.277 µM, a TGI (DU-145 prostate) of 0.791 µM and a GI50 (IGROV1 ovarian) of 0.229 µM. It also gave a TGI (IGROV1 ovarian) of 0.519 µM, a GI50 (KM12 colon) of 0.215 µM and a TGI (KM12 colon) of 0.497 µM. The GI50 (MALME-3M melanoma) was 0.186 µM, the TGI (MALME-3M melanoma) was 0.346 µM and the GI50 (MDA-MB-231 breast) was 0.251 µM. It also gave a TGI (MDA-MB-231 breast) of 0.759 µM, a GI50 (MOLT-4 leukemia) of 0.209 µM and a TGI (MOLT-4 leukemia) of 0.512 µM. The GI50 (OVCAR-4 ovarian) was 0.262 µM, the TGI (OVCAR-4 ovarian) was 0.962 µM and the GI50 (PC-3 prostate) was 0.238 µM. For the same molecule, the TGI (PC-3 prostate) was 0.547 µM, the GI50 (RXF 393 renal) was 0.186 µM and the TGI (RXF 393 renal) was 0.388 µM. It also gave a GI50 (SK-MEL-2 melanoma) of 0.288 µM and a TGI (SK-MEL-2 melanoma) of 0.869 µM.
In the case of `CCOC(=O)Cn1c(C(F)(F)F)nc2nc(Cl)c(Cl)nc21`, the TGI (DU-145 prostate) is reported as 13.9 µM, the TGI (IGROV1 ovarian) is reported as greater than 76.6 µM and the TGI (KM12 colon) is reported as 34 µM. The TGI (MALME-3M melanoma) was greater than 100 µM, the TGI (MDA-MB-231 breast) was greater than 100 µM and the TGI (MOLT-4 leukemia) was 97.6 µM. For the same molecule, the TGI (OVCAR-4 ovarian) was 30.2 µM, the TGI (PC-3 prostate) was greater than 100 µM and the TGI (RXF 393 renal) was greater than 100 µM. It also gave a TGI (SK-MEL-2 melanoma) of 60.2 µM.
For `CC1CCc2nc[nH]c(=O)c21` (stereo not given), the GI50 (DU-145 prostate) was greater than 100 µM, the TGI (DU-145 prostate) was greater than 100 µM and the GI50 (IGROV1 ovarian) was greater than 100 µM. For the same molecule, the TGI (IGROV1 ovarian) was greater than 100 µM, the GI50 (KM12 colon) was greater than 100 µM and the TGI (KM12 colon) was greater than 100 µM. The GI50 (MALME-3M melanoma) was greater than 100 µM, the TGI (MALME-3M melanoma) was greater than 100 µM and the GI50 (MDA-MB-231 breast) was greater than 100 µM. It also gave a TGI (MDA-MB-231 breast) greater than 100 µM, a GI50 (MOLT-4 leukemia) greater than 100 µM and a TGI (MOLT-4 leukemia) greater than 100 µM. The GI50 (OVCAR-4 ovarian) was greater than 100 µM, the TGI (OVCAR-4 ovarian) was greater than 100 µM and the GI50 (PC-3 prostate) was greater than 100 µM. It also gave a TGI (PC-3 prostate) greater than 100 µM, a GI50 (RXF 393 renal) greater than 100 µM and a TGI (RXF 393 renal) greater than 100 µM. It also gave a GI50 (SK-MEL-2 melanoma) greater than 100 µM and a TGI (SK-MEL-2 melanoma) greater than 100 µM.
`COc1cnc2c(c1)C(=O)c1c-2n(CCCN2CCOCC2)c(=O)c2cc(F)ccc12` showed a GI50 (DU-145 prostate) of 0.341 µM, a TGI (DU-145 prostate) greater than 100 µM and a GI50 (IGROV1 ovarian) of 0.354 µM. For the same molecule, the TGI (IGROV1 ovarian) was greater than 100 µM, the GI50 (KM12 colon) was 0.316 µM and the TGI (KM12 colon) was greater than 100 µM. The GI50 (MALME-3M melanoma) was 0.503 µM, the TGI (MALME-3M melanoma) was 3.42 µM and the GI50 (MDA-MB-231 breast) was 1.6 µM. The TGI (MDA-MB-231 breast) was greater than 100 µM, the GI50 (MOLT-4 leukemia) was 0.106 µM and the TGI (MOLT-4 leukemia) was 0.637 µM. The GI50 (OVCAR-4 ovarian) was 0.352 µM, the TGI (OVCAR-4 ovarian) was greater than 100 µM and the GI50 (PC-3 prostate) was 0.369 µM. The TGI (PC-3 prostate) was greater than 100 µM, the GI50 (RXF 393 renal) was 0.226 µM and the TGI (RXF 393 renal) was 0.913 µM. For the same molecule, the GI50 (SK-MEL-2 melanoma) was 1.67 µM and the TGI (SK-MEL-2 melanoma) was 5.18 µM.
With `O=C(Nc1ccc(F)cc1)Nc1ccc(Cl)c([N+](=O)[O-])c1` the GI50 (DU-145 prostate) was 4.44 µM, the TGI (DU-145 prostate) was 21.2 µM and the GI50 (IGROV1 ovarian) was 4.77 µM. It also gave a TGI (IGROV1 ovarian) of 18.6 µM, a GI50 (KM12 colon) of 3.3 µM and a TGI (KM12 colon) of 13.8 µM. The GI50 (MALME-3M melanoma) was 2.37 µM, the TGI (MALME-3M melanoma) was 7.2 µM and the GI50 (MDA-MB-231 breast) was 2.54 µM. The TGI (MDA-MB-231 breast) was 6.46 µM, the GI50 (MOLT-4 leukemia) was 3.13 µM and the TGI (MOLT-4 leukemia) was 92.9 µM. It also gave a GI50 (OVCAR-4 ovarian) of 2.78 µM, a TGI (OVCAR-4 ovarian) of 14 µM and a GI50 (PC-3 prostate) of 1.6 µM. The TGI (PC-3 prostate) was 11.1 µM, the GI50 (RXF 393 renal) was 1.75 µM and the TGI (RXF 393 renal) was 6.71 µM. The GI50 (SK-MEL-2 melanoma) was 2.32 µM and the TGI (SK-MEL-2 melanoma) was 5.83 µM.
Molecule `O=C(Nc1ccc(-n2ccc3c(NC(=O)c4ccccc4)nccc32)cc1)c1ccc(Cl)c(C(F)(F)F)c1` has a GI50 (DU-145 prostate) of 2.12 µM, a TGI (DU-145 prostate) of 10.7 µM and a GI50 (IGROV1 ovarian) of 1.55 µM. It also gave a TGI (IGROV1 ovarian) of 15.3 µM, a GI50 (KM12 colon) of 0.351 µM and a TGI (KM12 colon) of 6.26 µM. It also gave a GI50 (MALME-3M melanoma) of 4.13 µM, a TGI (MALME-3M melanoma) of 14.7 µM and a GI50 (MDA-MB-231 breast) of 5.09 µM. For the same molecule, the TGI (MDA-MB-231 breast) was 15 µM, the GI50 (MOLT-4 leukemia) was 0.351 µM and the TGI (MOLT-4 leukemia) was greater than 20.7 µM. It also gave a GI50 (OVCAR-4 ovarian) of 1.61 µM, a TGI (OVCAR-4 ovarian) of 8.55 µM and a GI50 (PC-3 prostate) of 2.56 µM. The TGI (PC-3 prostate) was 24.8 µM, the GI50 (RXF 393 renal) was 1.01 µM and the TGI (RXF 393 renal) was 9.64 µM. It also gave a GI50 (SK-MEL-2 melanoma) of 6.16 µM and a TGI (SK-MEL-2 melanoma) of 31.6 µM.
